Measurements published in patent publication US4663326A, “Pyrazolo[4,3-d]pyrimidine-5,7-(4H,6H)dione or -5-thione-7-one analogs” (Warner-Lambert Company, priority 1985, dated 1987).

Tests used:
[1] = test system: pentobarbital-anesthetized dog; assay: In vivo myocardial inotropic activity in anesthetized dog (CVAD); parameters: species or system dog (adult mongrel); settings: for Percent Change Heart Rate / Percent Change Myocardial Contractility / Percent Change Blood Pressure (second value) / Percent Change Blood Pressure (first value): intravenous; for Percent Change Blood Pressure (second value): value after the slash; for Percent Change Blood Pressure (first value): value before the slash
Description: This test procedure is described in the following paragraphs.
This screen consists of determining the effects of increasing intravenous doses of compound on mycardial contractility (dP/dt max of left ventricular blood pressure), heart rate, and aortic blood pressure of the pentobarbital-anesthetized dog.
Adult mongrel dogs of either sex are anesthetized with pentobarbital, 35 mg/kg, IV, and are subsequently maintained under anesthesia with a continuous infusion of pentobarbital, 3.5 mg/kg/hour. The trachea is intubated but the animals are permitted to breathe spontaneously. A cannula is inserted into the femoral vein for administrating test agents. A Millar catheter tip pressure transducer or a fluid filled catheter is inserted into the ascending aorta via the femoral artery for measuring aortic blood pressure. A Millar catheter tip pressure transducer is passed into the left ventricle via the left carotid artery for measuring left ventricular blood pressure. Needle electrodes are placed subcutaneously for recording a lead II electrocardiogram (ECG).
Left ventricular and aortic blood pressures are recorded on a strip chart recorder. Heart rate, using a biotachometer triggered from the R wave of the ECG, and the first derivative of left ventricular blood pressure (dP/dt), obtained with a differentiator amplifier coupled to the corresponding pressure amplifier, are also recorded. A period of at least 30 minutes is utilized to obtain control data prior to administration of test compound.
Depending on solubility, the compounds are dissolved in 0.9% saline solution or in dilute HCl or NaOH (0.1 to 1.0N) and are diluted to volume with normal saline. Ethanol or dimethylacetamide can be used as solvents if adequate dilutions can be made. Appropriate vehicle controls are administered when needed.
Each dose of the test compound is administered in a volume of […] over a period of one minute.

histamine = assay: Bronchodilator test (BCA), histamine spasmogen, guinea pigs; assay type: in vivo, Hartley Guinea Pigs; parameters: key: Active; settings: 50 mg/kg
Excerpt: The compounds of this invention may be determined to have antiallergy activity by a standard laboratory means employing the bronchodilator test (BCA) readily accepted as a standard for antiallergy activity, which is described in Siegmund, H. O., et al (J. Pharmacol. and Exptl., 90:254, 1949 and Herxheimer, H., J. Physiol., 117: 252-255, 1952). Thus, antiallergy activity was found for compounds of this invention by this BCA test using Hartley Guinea Pigs by the procedures as described below.
Naive (BCA) pigs are exposed to spasmogen for ten minutes by means of a De Vilbiss number 40 nebulizer positioned at the back of a closed, six unit plexiglas chamger (19×12.5×9"). Air flow is adjusted to give a pressure of 10 lbs/in; six animals per treatment are averaged, and the mean value for compound treated animals is compared to that for animals treated with vehicle. […]
The spasmogen may be acetylcholine chloride (0.3%), histamine (0.1%), methacholine chloride (Mecholyl) (0.1%) or serotonin creatinine sulfate. Each nebulizer dispenses 0.2 cc/minute.

[2] = intravenously at about 0.01 to 0.31 mg/kg

Compound | Percent Change Heart Rate ([1]; 0.10 mg/kg) [%] | Percent Change Myocardial Contractility ([1]; 0.10 mg/kg) [%] | Percent Change Blood Pressure (second value) ([1]; 0.10 mg/kg) [%] | Percent Change Blood Pressure (first value) ([1]; 0.10 mg/kg) [%] | Percent Change Heart Rate ([1]; 1.00 mg/kg) [%] | Percent Change Myocardial Contractility ([1]; 1.00 mg/kg) [%] | Percent Change Blood Pressure (second value) ([1]; 1.00 mg/kg) [%] | Percent Change Blood Pressure (first value) ([1]; 1.00 mg/kg) [%] | Percent Change Heart Rate ([1]; 3.10 mg/kg) [%] | Percent Change Myocardial Contractility ([1]; 3.10 mg/kg) [%] | Percent Change Blood Pressure (second value) ([1]; 3.10 mg/kg) [%] | Percent Change Blood Pressure (first value) ([1]; 3.10 mg/kg) [%] | further results
CCn1nc(C)c2[nH]c(=S)[nH]c(=O)c21 [Example 2, 1-Ethyl-1,4,5,6-tetrahydro-3-methyl-pyrazolo[4,3-d]pyrimidine-5-thione-7-on] | 3 | 5 | -1 | -1 | -1 | 13 | -4 | -2 | 5 | 45 | -9 | -6 | Percent Change Heart Rate ([1]; 0.30 mg/kg): 2%; Percent Change Myocardial Contractility ([1]; 0.30 mg/kg): 8%; Percent Change Blood Pressure (second value) ([1]; 0.30 mg/kg): -4%; Percent Change Blood Pressure (first value) ([1]; 0.30 mg/kg): -3%
Cc1nn(C)c2c(=O)[nH]c(=O)[nH]c12 [Example 1, 1,3-Dimethylpyrazolo[4,3-d]pyrimidine-5,7-(4H, 6H)dione] | 1 | 5 | 1 | 1 | 5 | 41 | -2 | 0 | 15 | 90 | -4 | -2 | BCA Results, Ratings (histamine): A; Percent Change Heart Rate ([1]; 0.31 mg/kg): 1%; Percent Change Myocardial Contractility ([1]; 0.31 mg/kg): 13%; Percent Change Blood Pressure (second value) ([1]; 0.31 mg/kg): -1%; Percent Change Blood Pressure (first value) ([1]; 0.31 mg/kg): 1%; blood pressure (in words) [1, 2]: moderate reduction in blood pressure; cardiac contractility (in words) [1, 2]: dose related significant increases in cardiac contractility; heart rate (in words) [1, 2]: only low or minimal changes in heart rate
